# Earlier results in patent US20130225598A1, “Stabilized Amorphous Forms of Imatinib Mesylate” (Novartis AG, priority 2007, published 2013).
# Details: at temperatures below 140 ° C.
smiles,measurement,value
CS(=O)(=O)O.Cc1ccc(NC(=O)c2ccc(CN3CCN(C)CC3)cc2)cc1Nc1nccc(-c2cccnc2)n1 [4-(4-methylpiperazin-1-ylmethyl)-N-[4-methyl-3-(4-(pyridin-3-yl)-pyrimidin-2-ylamino-)phenyl]-benzamide mesylate],thermodynamic stability relative to alpha crystal form,thermodynamically more stable than the alpha form
